A word on the EC50: it is the concentration at which the effect is half-maximal. A low value points to an effect from little substance.

Several values for one entry are separate records, joined by “and”; a condition that tells them apart may be missing. Identical values can stand only once. Bounds are passed on as bounds.

For the first experiment, the target named is NAMPT enzyme (Homo sapiens (Human), UniProt P43490). The experiment can be described thus: Enzyme Assay and NMN Detection (NAMPT reaction, fluorescence detection of NMN). As to conditions: Table B-1; NAMPT activation, NMN formation. It counts as biochemical. The gist of the method: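 Reaction in 50 mM HEPES pH 7.5, 5 mM MgCl2, 0.1% Prionex, 0.005% Tween 20, 1 mM TCEP at room temperature, with 16 nM NAMPT, 120 uM ATP, 5 uM nicotinamide, 6.25 uM PRPP, 0.04 U/ml pyrophosphatase for 2 h. Stopped with acetophenone/KOH then formic acid; NMN quantified by fluorescence (ex380/em460) against calibration curve.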
NAMPT enzyme, sequence (P43490 whole entry, species assumed): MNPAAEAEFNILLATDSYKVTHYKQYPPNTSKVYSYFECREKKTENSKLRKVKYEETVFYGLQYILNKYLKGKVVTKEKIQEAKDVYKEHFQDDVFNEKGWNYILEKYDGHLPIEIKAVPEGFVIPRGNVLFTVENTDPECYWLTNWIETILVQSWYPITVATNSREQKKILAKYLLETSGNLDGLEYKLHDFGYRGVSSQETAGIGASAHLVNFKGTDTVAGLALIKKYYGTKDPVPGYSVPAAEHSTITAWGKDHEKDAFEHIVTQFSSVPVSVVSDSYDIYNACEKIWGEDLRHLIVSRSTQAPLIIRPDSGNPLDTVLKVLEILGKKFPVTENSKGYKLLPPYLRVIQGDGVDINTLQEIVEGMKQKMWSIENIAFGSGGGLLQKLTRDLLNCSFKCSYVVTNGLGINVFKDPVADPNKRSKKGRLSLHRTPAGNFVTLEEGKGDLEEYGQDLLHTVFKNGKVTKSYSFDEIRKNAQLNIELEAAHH
Consider `O=C(NCc1cn[nH]c1)Nc1ccc(S(=O)(=O)N2CCc3ccccc3C2)cc1` [1-[4-(3,4-Dihydro-1H-isoquinoline-2-sulfonyl)-phenyl]-3-(1H-pyrazol-4-ylmethyl)-urea], for which the EC50 was under 0.1 µM.

Compound `Cc1noc(C)c1CNC(=O)Nc1ccc(S(=O)(=O)N2CCc3ccccc3C2)cc1` [1-[4-(3,4-Dihydro-1H-isoquinoline-2-sulfonyl)-phenyl]-3-(3,5-dimethyl-isoxazol-4-ylmethyl)-urea] returned an EC50 of over 20 µM.

`O=C(NCc1cnco1)Nc1ccc(S(=O)(=O)N2CCc3ccccc3C2)cc1` [1-[4-(3,4-Dihydro-1H-isoquinoline-2-sulfonyl)-phenyl]-3-oxazol-5-ylmethyl-urea] yielded an EC50 of 0.1 to 2 µM. On the same count and under the same terms, for `O=C(NCc1cncs1)Nc1ccc(S(=O)(=O)N2CCc3ccccc3C2)cc1` [1-[4-(3,4-Dihydro-1H-isoquinoline-2-sulfonyl)-phenyl]-3-thiazol-5-ylmethyl-urea] the value was 0.1 to 2 µM. In turn, `O=C(NCc1cn[nH]c1)Nc1ccc(S(=O)(=O)c2cccc(Cl)c2)cc1` [1-[4-(3-Chloro-benzenesulfonyl)-phenyl]-3-(1H-pyrazol-4-ylmethyl)-urea] showed an EC50 of under 0.1 µM.

Consider `COc1cccc(S(=O)(=O)c2ccc(NC(=O)NCc3cn[nH]c3)cc2)c1` [1-[4-(3-Methoxy-benzenesulfonyl)-phenyl]-3-(1H-pyrazol-4-ylmethyl)-urea], for which the EC50 is under 0.1 µM. With `O=C(NCc1cn[nH]c1)Nc1ccc(S(=O)(=O)c2ccc(Cl)cc2)cc1` [1-[4-(4-Chloro-benzenesulfonyl)-phenyl]-3-(1H-pyrazol-4-ylmethyl)-urea], the EC50 was under 0.1 µM. Same read-out and setting: then `COc1ccc(S(=O)(=O)c2ccc(NC(=O)NCc3cn[nH]c3)cc2)cc1` [1-[4-(4-Methoxy-benzenesulfonyl)-phenyl]-3-(1H-pyrazol-4-ylmethyl)-urea], with under 0.1 µM.

The experiment is the same for the next values; noted with them: Table B-2; NAMPT activation, NMN formation.
As to `O=C(NCc1ccncc1)Nc1ccc(S(=O)(=O)N2CCc3ccccc3C2)cc1` [1-[4-(3,4-Dihydro-1H-isoquinoline-2-sulfonyl)-phenyl]-3-pyridin-4-ylmethyl-urea], the EC50 is 0.1 to 2 µM.

Take `COc1cccc(S(=O)(=O)c2ccc(NC(=O)NCc3ccncc3)cc2)c1` [1-[4-(3-Methoxy-benzenesulfonyl)-phenyl]-3-pyridin-4-ylmethyl-urea]: the EC50 is under 0.1 µM.

Compound `CC1Cc2ccccc2CN1S(=O)(=O)c1ccc(NC(=O)NCc2ccncc2)cc1` (stereo not shown) [1-[4-(3-Methyl-3,4-dihydro-1H-isoquinoline-2-sulfonyl)-phenyl]-3-pyridin-4-ylmethyl-urea] showed an EC50 of 0.1 to 2 µM. On the same count and under the same terms, for `O=C(NCc1ccncc1)Nc1ccc(S(=O)(=O)c2ccc(Cl)cc2)cc1` [1-[4-(4-Chloro-benzenesulfonyl)-phenyl]-3-pyridin-4-ylmethyl-urea] the value was 0.1 to 2 µM. In turn, `COc1ccc(S(=O)(=O)c2ccc(NC(=O)NCc3ccncc3)cc2)cc1` [1-[4-(4-Methoxy-benzenesulfonyl)-phenyl]-3-pyridin-4-ylmethyl-urea] gave an EC50 of 0.1 to 2 µM.

`CN1CCN(S(=O)(=O)c2ccc(NC(=O)NCc3ccncc3)cc2)CC1` [1-[4-(4-Methyl-piperazine-1-sulfonyl)-phenyl]-3-pyridin-4-ylmethyl-urea] showed an EC50 of 0.1 to 2 µM.

Staying with this experiment, now noted: Table B-4; NAMPT activation, NMN formation.
On to `COc1ccccc1-c1ccccc1S(=O)(=O)c1ccc(NC(=O)NCc2cn[nH]c2)cc1` [1-[4-(2′-Methoxy-biphenyl-2-sulfonyl)-phenyl]-3-(1H-pyrazol-4-ylmethyl)-urea], for which the EC50 was in the range of 5 to 20 µM.

In turn, `O=C(NCc1cn[nH]c1)Nc1ccc(S(=O)(=O)c2ccc(Cl)c(Cl)c2)cc1` [1-[4-(3,4-Dichloro-benzenesulfonyl)-phenyl]-3-(1H-pyrazol-4-ylmethyl)-urea] showed an EC50 of 5 to 20 µM.

The compound `O=C(NCc1cn[nH]c1)Nc1ccc(S(=O)(=O)c2ccc(F)c(F)c2)cc1` [1-[4-(3,4-Difluoro-benzenesulfonyl)-phenyl]-3-(1H-pyrazol-4-ylmethyl)-urea] came in with an EC50 of 0.1 to 2 µM. Regarding `O=C(NCc1cn[nH]c1)Nc1ccc(S(=O)(=O)c2cc(F)cc(F)c2)cc1` [1-[4-(3,5-Difluoro-benzenesulfonyl)-phenyl]-3-(1H-pyrazol-4-ylmethyl)-urea], the EC50 was under 0.1 µM.

`O=C(NCc1cn[nH]c1)Nc1ccc(S(=O)(=O)c2cccc(I)c2)cc1` [1-[4-(3-Iodo-benzenesulfonyl)-phenyl]-3-(1H-pyrazol-4-ylmethyl)-urea]: the EC50 is under 0.1 µM. Compound `O=C(NCc1cn[nH]c1)Nc1ccc(S(=O)(=O)c2ccccc2-c2cccc(Cl)c2)cc1` [1-[4-(3′-Chloro-biphenyl-2-sulfonyl)-phenyl]-3-(1H-pyrazol-4-ylmethyl)-urea] gave an EC50 of 0.1 to 2 µM. Still for that read-out and setting: for `O=C(NCc1cn[nH]c1)Nc1ccc(S(=O)(=O)c2ccccc2-c2cccc(F)c2)cc1` [1-[4-(3′-Fluoro-biphenyl-2-sulfonyl)-phenyl]-3-(1H-pyrazol-4-ylmethyl)-urea] the value was under 0.1 µM; for `COc1cccc(-c2ccccc2S(=O)(=O)c2ccc(NC(=O)NCc3cn[nH]c3)cc2)c1` [1-[4-(3′-Methoxy-biphenyl-2-sulfonyl)-phenyl]-3-(1H-pyrazol-4-ylmethyl)-urea], 2 to 5 µM. Same read-out and setting: then `Cc1cccc(-c2ccccc2S(=O)(=O)c2ccc(NC(=O)NCc3cn[nH]c3)cc2)c1` [1-[4-(3′-Methyl-biphenyl-2-sulfonyl)-phenyl]-3-(1H-pyrazol-4-ylmethyl)-urea], with 0.1 to 2 µM; and `N#Cc1ccc(S(=O)(=O)c2ccc(NC(=O)NCc3cn[nH]c3)cc2)cc1` [1-[4-(4-Cyano-benzenesulfonyl)-phenyl]-3-(1H-pyrazol-4-ylmethyl)-urea], with 0.1 to 2 µM; and `O=C(NCc1cn[nH]c1)Nc1ccc(S(=O)(=O)c2ccccc2-c2ccc(F)cc2)cc1` [1-[4-(4′-Fluoro-biphenyl-2-sulfonyl)-phenyl]-3-(1H-pyrazol-4-ylmethyl)-urea], with 0.1 to 2 µM.

Staying with this experiment, now noted: Table B-5; NAMPT activation, NMN formation.
Turning to `O=C(NCc1cnco1)Nc1ccc(S(=O)(=O)c2ccc(Cl)c(Cl)c2)cc1` [1-[4-(3,4-Dichloro-benzenesulfonyl)-phenyl]-3-oxazol-5-ylmethyl-urea], the EC50 is 0.1 to 2 µM and 2 to 5 µM.

Regarding `O=C(NCc1cnco1)Nc1ccc(S(=O)(=O)c2ccc(F)c(F)c2)cc1` [1-[4-(3,4-Difluoro-benzenesulfonyl)-phenyl]-3-oxazol-5-ylmethyl-urea], the EC50 fell in the range of 0.1 to 2 µM.

For `O=C(NCc1cnco1)Nc1ccc(S(=O)(=O)c2cc(F)cc(F)c2)cc1` [1-[4-(3,5-Difluoro-benzenesulfonyl)-phenyl]-3-oxazol-5-ylmethyl-urea], the EC50 lay within 0.1 to 2 µM. On the same count and under the same terms, then `COc1cccc(S(=O)(=O)c2ccc(NC(=O)NCc3cnco3)cc2)c1` [1-[4-(3-methoxy-benzenesulfonyl)-phenyl]-3-oxazol-5-ylmethyl-urea], with 0.1 to 2 µM; and `N#Cc1ccc(S(=O)(=O)c2ccc(NC(=O)NCc3cnco3)cc2)cc1` [1-[4-(4-Cyano-benzenesulfonyl)-phenyl]-3-oxazol-5-ylmethyl-urea], with 0.1 to 2 µM. Same read-out and setting: for `COc1ccc(S(=O)(=O)c2ccc(NC(=O)NCc3cnco3)cc2)cc1` [1-[4-(4-Methoxy-benzenesulfonyl)-phenyl]-3-oxazol-5-ylmethyl-urea] the value was 0.1 to 2 µM.

The same experiment, now with this note: Table B-6; NAMPT activation, NMN formation.
Regarding `COc1ccccc1-c1ccccc1S(=O)(=O)c1ccc(NC(=O)NCc2ccncc2)cc1` [1-[4-(2′-Methoxy-biphenyl-2-sulfonyl)-phenyl]-3-pyridin-4-ylmethyl-urea], the EC50 was 5 to 20 µM. Same read-out and setting: then `O=C(NCc1ccncc1)Nc1ccc(S(=O)(=O)c2ccc(Cl)c(Cl)c2)cc1` [1-[4-(3,4-Dichloro-benzenesulfonyl)-phenyl]-3-pyridin-4-ylmethyl-urea], with 0.1 to 2 µM; and `O=C(NCc1ccncc1)Nc1ccc(S(=O)(=O)c2ccc(F)c(F)c2)cc1` [1-[4-(3,4-Difluoro-benzenesulfonyl)-phenyl]-3-pyridin-4-ylmethyl-urea], with under 0.1 µM; and `O=C(NCc1ccncc1)Nc1ccc(S(=O)(=O)c2cc(F)cc(F)c2)cc1` [1-[4-(3,5-Difluoro-benzenesulfonyl)-phenyl]-3-pyridin-4-ylmethyl-urea], with 0.1 to 2 µM. Still for that read-out and setting: then `O=C(NCc1ccncc1)Nc1ccc(S(=O)(=O)c2cccc(I)c2)cc1` [1-[4-(3-Iodo-benzenesulfonyl)-phenyl]-3-pyridin-4-ylmethyl-urea], with under 0.1 µM. Still for that read-out and setting: for `O=C(NCc1ccncc1)Nc1ccc(S(=O)(=O)c2ccccc2-c2cccc(Cl)c2)cc1` [1-[4-(3′-Chloro-biphenyl-2-sulfonyl)-phenyl]-3-pyridin-4-ylmethyl-urea] the value was 0.1 to 2 µM; for `O=C(NCc1ccncc1)Nc1ccc(S(=O)(=O)c2ccccc2-c2cccc(F)c2)cc1` [1-[4-(3′-Fluoro-biphenyl-2-sulfonyl)-phenyl]-3-pyridin-4-ylmethyl-urea], under 0.1 µM. As to `COc1cccc(-c2ccccc2S(=O)(=O)c2ccc(NC(=O)NCc3ccncc3)cc2)c1` [1-[4-(3′-Methoxy-biphenyl-2-sulfonyl)-phenyl]-3-pyridin-4-ylmethyl-urea], the EC50 is 0.1 to 2 µM. The same measure, in the same setting: for `Cc1cccc(-c2ccccc2S(=O)(=O)c2ccc(NC(=O)NCc3ccncc3)cc2)c1` [1-[4-(3′-Methyl-biphenyl-2-sulfonyl)-phenyl]-3-pyridin-4-ylmethyl-urea] the value was 0.1 to 2 µM. Same read-out and setting: for `N#Cc1ccc(S(=O)(=O)c2ccc(NC(=O)NCc3ccncc3)cc2)cc1` [1-[4-(4-Cyano-benzenesulfonyl)-phenyl]-3-pyridin-4-ylmethyl-urea] the value was 0.1 to 2 µM. The compound `O=C(NCc1ccncc1)Nc1ccc(S(=O)(=O)c2ccccc2-c2ccc(Cl)cc2)cc1` [1-[4-(4′-Chloro-biphenyl-2-sulfonyl)-phenyl]-3-pyridin-4-ylmethyl-urea] displayed an EC50 of 5 to 20 µM. The same measure, in the same setting: then `O=C(NCc1ccncc1)Nc1ccc(S(=O)(=O)c2ccccc2-c2ccc(F)cc2)cc1` [1-[4-(4′-Fluoro-biphenyl-2-sulfonyl)-phenyl]-3-pyridin-4-ylmethyl-urea], with 0.1 to 2 µM.

For the origin of these results see patent US11452717B2, “Small molecule activators of nicotinamide phosphoribosyltransferase (NAMPT) and uses thereof” (Sanford Burnham Prebys Medical Discovery Institute, priority 2017, dated 2022).
